Measurements published in patent publication US8586598B2, “CDK inhibitor salts” (Nerviano Medical Sciences S.R.L., priority 2009, dated 2013).
Values after ≈ are worked out from the molar mass of the structure shown. Where two headings read alike, the source gives them in different places.

Assays:
[1] = Solubility of compound 125 salts and free base (96-well plate, shaken at RT 30 minutes, filtered, HPLC); assay type: physicochemical; details: thermodynamic from solid
[2] = Solubility (no method given); assay type: physicochemical

- solubility at 30 min ([1]; 10% polysorbate 80 in 5% glucose solution, aqueous with cosolvent or surfactant or cyclodextrin): 800 µg/mL
- solubility at 30 min ([1]; 50% polyethylene glycol 400 in 5% glucose solution, aqueous with cosolvent or surfactant or cyclodextrin, read-out: solubility in 50% polyethylene glycol 400 in 5% glucose solution): 7200 µg/mL
- solubility at 30 min ([1]; saline or isotonic, 5% glucose solution, RT, 30 minutes, read-out: solubility in 5% glucose solution): < 100 µg/mL
- solubility at 30 min ([1]; formulated as hydrochloride in situ salt, read-out: solubility when formulated as hydrochloride in situ salt): 10000 µg/mL
- solubility ([2]; 5% dextrose solution, saline or isotonic, read-out: solubility in 5% dextrose solution): < 100 µg/mL
- solubility ([2]; HCl in situ salt formulation, formulated as HCl in situ salt, read-out: solubility when formulated as HCl in situ salt): ≥ 10000 µg/mL
- solubility ([2]; aqueous 10% Polysorbate 80, aqueous with cosolvent or surfactant or cyclodextrin): ~800 µg/mL (≈ 1740 µM)
- solubility ([2]; aqueous 50% Polyethylene Glycol 400, aqueous with cosolvent or surfactant or cyclodextrin, read-out: solubility in aqueous 50% Polyethylene Glycol 400): ~8000 µg/mL (≈ 17400 µM)
- solubility ([2]; water, read-out: aqueous solubility): < 100 µg/mL
SMILES: CNC(=O)c1nn(C)c2c1C(C)(C)Cc1cnc(Nc3ccc(N4CCN(C)CC4)cc3)nc1-2 [compound 125, 8-[4-(4-methyl-piperazin-1-yl)-phenylamino]-1,4,4-trimethyl-4,5-dihydro-1H-pyrazolo[4,3-h]quinazoline-3-carboxylic acid methylamide]
